# Values joined by “and” are separate entries in the source; they are usually repeats but may differ in a detail not shown here. Equal values may be shown once.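 These data come from cells grown in 96-well plates and exposed to compound for 48 hours at five concentrations. GI50 is the concentration that inhibits growth by half. The concentration for full growth arrest is given as TGI.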
# Columns and labels:
# Assay in all cases: NCI tumour cell line growth inhibition, 48 h
# SK-OV-3 ovarian = test system: SK-OV-3 ovarian
# KM12 colon = test system: KM12 colon
# HOP-62 NSCLC = test system: HOP-62 NSCLC
# SW-620 colon = test system: SW-620 colon
# NCI-H226 lung = test system: NCI-H226 lung
# DU-145 prostate = test system: DU-145 prostate
# RPMI-8226 leukemia = test system: RPMI-8226 leukemia
# MCF7 breast = test system: MCF7 breast
# HOP-92 NSCLC = test system: HOP-92 NSCLC
# NCI-H23 lung = test system: NCI-H23 lung
# ACHN renal = test system: ACHN renal
# HCT-15 colon = test system: HCT-15 colon
# BT-549 breast = test system: BT-549 breast
# SK-MEL-2 melanoma = test system: SK-MEL-2 melanoma
# P388/ADR leukemia = test system: P388/ADR leukemia
# SF-295 CNS = test system: SF-295 CNS
# SK-MEL-5 melanoma = test system: SK-MEL-5 melanoma
# U251 CNS = test system: U251 CNS
# SN12C renal = test system: SN12C renal
# SK-MEL-28 melanoma = test system: SK-MEL-28 melanoma
# SNB-75 CNS = test system: SNB-75 CNS
# MDA-MB-435 = test system: MDA-MB-435
# DMS 114 small cell lung = test system: DMS 114 small cell lung
# M14 melanoma = test system: M14 melanoma
# OVCAR-3 ovarian = test system: OVCAR-3 ovarian
# MDA-MB-231 breast = test system: MDA-MB-231 breast
# MOLT-4 leukemia = test system: MOLT-4 leukemia
# HCC-2998 colon = test system: HCC-2998 colon
# MALME-3M melanoma = test system: MALME-3M melanoma
# HS 578T breast = test system: HS 578T breast
# SNB-78 CNS = test system: SNB-78 CNS
# T-47D breast = test system: T-47D breast
# NCI/ADR-RES ovarian = test system: NCI/ADR-RES ovarian
# PC-3 prostate = test system: PC-3 prostate
# UACC-257 melanoma = test system: UACC-257 melanoma
# LOX IMVI melanoma = test system: LOX IMVI melanoma
# NCI-H522 lung = test system: NCI-H522 lung
# UO-31 renal = test system: UO-31 renal
# MDA-N = test system: MDA-N
# OVCAR-4 ovarian = test system: OVCAR-4 ovarian
# DMS 273 small cell lung = test system: DMS 273 small cell lung
# OVCAR-5 ovarian = test system: OVCAR-5 ovarian
# A498 renal = test system: A498 renal
# NCI-H460 lung = test system: NCI-H460 lung
# HL-60(TB) leukemia = test system: HL-60(TB) leukemia
# DLD-1 colon = test system: DLD-1 colon
# K-562 leukemia = test system: K-562 leukemia
# EKVX NSCLC = test system: EKVX NSCLC
# M19-MEL melanoma = test system: M19-MEL melanoma
# SF-268 CNS = test system: SF-268 CNS
# CCRF-CEM leukemia = test system: CCRF-CEM leukemia
compound,measurement,setting,value
CCCCCCCCCCCC[C@@H](O)[C@H]1CC[C@H]([C@H](O)CCCC[C@H](O)CCCCC[C@@H](O)CC2=C[C@H](C)OC2=O)O1,TGI,SK-OV-3 ovarian,11.4 µM
same,GI50,KM12 colon,1.98 µM
same,TGI,KM12 colon,5.17 µM and 12.3 µM
same,GI50,HOP-62 NSCLC,3.98 µM
same,TGI,HOP-62 NSCLC,5.41 µM and 10.6 µM
same,TGI,SW-620 colon,6.58 µM and 12.9 µM
same,GI50,NCI-H226 lung,1.53 µM
same,TGI,NCI-H226 lung,3.54 µM and 18.2 µM
same,GI50,DU-145 prostate,7.93 µM
same,TGI,DU-145 prostate,21.3 µM
same,GI50,RPMI-8226 leukemia,1.56 µM and 0.888 µM
same,TGI,RPMI-8226 leukemia,7.92 µM and 7.46 µM
same,TGI,MCF7 breast,5.13 µM and 6.79 µM
same,TGI,HOP-92 NSCLC,6.23 µM and 9.94 µM
same,GI50,NCI-H23 lung,< 0.051 µM
same,TGI,NCI-H23 lung,5.8 µM and 10.2 µM
same,GI50,ACHN renal,2.74 µM
same,TGI,ACHN renal,6.53 µM and 14.9 µM
same,GI50,HCT-15 colon,2.83 µM
same,TGI,HCT-15 colon,5.8 µM and 9.73 µM
same,TGI,BT-549 breast,24 µM
same,GI50,SK-MEL-2 melanoma,1.3 µM
same,TGI,SK-MEL-2 melanoma,2.6 µM and 1.68 µM
same,TGI,P388/ADR leukemia,7.53 µM
same,TGI,SF-295 CNS,5.31 µM and 8.02 µM
same,GI50,SK-MEL-5 melanoma,0.275 µM
same,TGI,SK-MEL-5 melanoma,7.16 µM and 2.21 µM
same,GI50,U251 CNS,3.31 µM
same,TGI,U251 CNS,11.6 µM
same,TGI,SN12C renal,7.66 µM and 15.6 µM
same,GI50,SK-MEL-28 melanoma,3.77 µM
same,TGI,SK-MEL-28 melanoma,6.19 µM and 9.93 µM
same,GI50,SNB-75 CNS,4.02 µM
same,TGI,SNB-75 CNS,7.77 µM and 10.3 µM
same,GI50,MDA-MB-435,2.26 µM
same,TGI,MDA-MB-435,5.43 µM and 12 µM
same,TGI,DMS 114 small cell lung,0.371 µM
same,TGI,M14 melanoma,5.25 µM and 10.4 µM
same,GI50,OVCAR-3 ovarian,1.41 µM and 1.56 µM
same,TGI,OVCAR-3 ovarian,2.71 µM and 4.05 µM
same,GI50,MDA-MB-231 breast,2.86 µM
same,TGI,MDA-MB-231 breast,7.56 µM and 10.6 µM
same,GI50,MOLT-4 leukemia,1.74 µM and 0.891 µM
same,TGI,MOLT-4 leukemia,4.06 µM
same,TGI,HCC-2998 colon,10.6 µM
same,GI50,MALME-3M melanoma,3.49 µM
same,TGI,MALME-3M melanoma,8.59 µM
same,GI50,HS 578T breast,4.22 µM
same,TGI,HS 578T breast,7.06 µM and 22.1 µM
same,TGI,SNB-78 CNS,15.2 µM
same,GI50,T-47D breast,1.74 µM
same,TGI,T-47D breast,14.1 µM
same,TGI,NCI/ADR-RES ovarian,5.42 µM and 11.2 µM
same,GI50,PC-3 prostate,2.43 µM
same,TGI,PC-3 prostate,5.16 µM and 12.3 µM
same,GI50,UACC-257 melanoma,0.0724 µM
same,TGI,UACC-257 melanoma,5.68 µM and 3.36 µM
same,GI50,LOX IMVI melanoma,0.809 µM
same,TGI,LOX IMVI melanoma,4.92 µM and 4.19 µM
same,TGI,NCI-H522 lung,4.45 µM
same,GI50,UO-31 renal,1.3 µM
same,TGI,UO-31 renal,5.11 µM and 7.51 µM
same,TGI,MDA-N,7.63 µM and 15.4 µM
same,TGI,OVCAR-4 ovarian,10.6 µM
same,TGI,DMS 273 small cell lung,5.55 µM
same,GI50,OVCAR-5 ovarian,1.59 µM and 5.77 µM
same,TGI,OVCAR-5 ovarian,3.05 µM and 17.9 µM
same,GI50,A498 renal,5.27 µM
same,TGI,A498 renal,9.41 µM and 13.6 µM
same,GI50,NCI-H460 lung,2.4 µM
same,TGI,NCI-H460 lung,5.16 µM and 11.7 µM
same,GI50,HL-60(TB) leukemia,0.548 µM and < 0.0574 µM
same,TGI,HL-60(TB) leukemia,4.24 µM and 2.13 µM
same,TGI,DLD-1 colon,11.5 µM
same,GI50,K-562 leukemia,0.302 µM
same,TGI,K-562 leukemia,7.06 µM
same,GI50,EKVX NSCLC,2.17 µM
same,TGI,EKVX NSCLC,6.88 µM and 12.5 µM
same,TGI,M19-MEL melanoma,5.71 µM
same,GI50,SF-268 CNS,2.38 µM
same,TGI,SF-268 CNS,6.01 µM and 11.2 µM
same,GI50,CCRF-CEM leukemia,1.98 µM
same,TGI,CCRF-CEM leukemia,7.58 µM

# Source: PubChem BioAssay (NCI)
